Laboratory results published in patent publication US11999758B2, “Inhibitors of the YAP/TAZ-TEAD interaction and their use in the treatment of cancer” (INVENTIVA, priority 2018, dated 2024).
Each block holds one molecule with its values, some of them ahead of it.

Assays:
YAP-TEAD interaction = target: T1, YAP-TEAD interaction (Homo sapiens, UniProt P28347); experiment: Cell-based TEAD-GAL4 transactivation assay (luciferase reporter); settings: HEK293 cells transfected with TEAD1-Gal4, YAP mutant (S127A, S397A) and luciferase reporter, compounds 0.1 μM to 30 μM; for Emax: HEK293, 24 h, read-out: TEAD-GAL4 Transactivation activity Max Act; for IC50: 24 h
T1 construct: expressed in transfected cells; host or cells: HEK293 GripTite 293 MSR (Invitrogen R795-07)
T1 sequence (P28347 whole entry, the tested form may be a part): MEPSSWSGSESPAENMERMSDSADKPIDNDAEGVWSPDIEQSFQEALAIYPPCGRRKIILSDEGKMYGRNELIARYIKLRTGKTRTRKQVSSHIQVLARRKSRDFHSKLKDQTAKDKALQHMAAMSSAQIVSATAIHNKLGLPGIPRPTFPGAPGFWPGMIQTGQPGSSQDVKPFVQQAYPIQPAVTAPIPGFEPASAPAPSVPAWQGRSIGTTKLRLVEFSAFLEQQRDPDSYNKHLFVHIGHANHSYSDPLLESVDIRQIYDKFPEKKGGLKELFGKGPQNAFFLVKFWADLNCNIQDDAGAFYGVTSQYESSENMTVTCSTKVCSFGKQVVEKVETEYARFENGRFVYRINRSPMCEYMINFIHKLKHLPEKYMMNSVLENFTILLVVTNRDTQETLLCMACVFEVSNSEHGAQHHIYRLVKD
Summary of the method: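 HEK293 cells transiently transfected with Gal4-DBD–full-length human TEAD1, full-length YAP S127A/S397A (YAP/TEAD ratio 10) and a 5×GAL4-RE TK-luciferase reporter. Six hours later, compounds added semi-log from 0.1 to 30 μM (DMSO 0.5% control) for 24 h. Luciferase read; IC50 from 3-parameter fit.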

[1] = tested on: NCI-H2052 mesothelioma cell; experiment: Inhibition of malignant mesothelioma tumor cell growth (EdU proliferation); format: cell-based; settings: NF2 mutated cell line; FIG. 1 (x)
Method: (§1) The tumor cell growth inhibitory activity of the YAP-TEAD interaction inhibitors was evaluated in NCI-H-2052 mesothelioma cell line harboring a NF2 mutation. This cell line was selected based on its mutational status and the ability of a siRNA directed against YAP, TAZ or TEAD1-4 to inhibit cell proliferation. The nuclear localization of YAP at confluence was also taken into account. Based on these observations we were able to classify several “YAP dependent cells” where YAP is clearly nuclear and in which a cell growth inhibition is observed by using siRNA (NCI-H-2052, SKOV-3, ACHN, A549) and the “YAP independent cells” where YAP is preferentially located in the cytoplasm and in which no inhibition of cell growth is observed by using a siRNA (SW620, Met-5a). […] After one day growth in the starvation medium, cells were incubated with compounds. The starting concentration was 30 μM and serial dilutions in DMSO and medium were performed until 0.1 μM to achieve a final DMSO concentration of 0.5%. The cells were then allowed to grow for 3 days, and then, EdU (Invitrogen, Molecular Probe) was added in each well at a final concentration of 10 μM and the cells were returned to the incubator for an additional 24 h. The starvation medium was removed and 100 μl of PFA 4% containing Hoechst dye was adding in each well to fix the cells. Plates were then incubated at rt for 15 min, washed twice with PBS and the cells were permeabilized by adding 100 μl per well of triton-100 containing 0.3% BSA. After 20 min, cells were washed with PBS and EdU detection was performed according to the instructions of the manufacturer. Image acquisition was performed using the ImageXpress Micro and analyzed using the MetaXpress software (Molecular Device). Results were expressed as a percent of inhibition (%) of the cell proliferation values obtained with 0.5% DMSO treatment alone. The cellular response was determined by fitting the concentration response curves using a 3 parameter curve fit equation and determining the concentration that inhibited cell growth between 50% and 100%.

Met5A cell line = experiment: Cell proliferation in YAP-independent cell line (EdU); format: cell-based; settings: FIG. 1 (▪)
Method: as §1

Emax (YAP-TEAD interaction): 86% | IC50 (YAP-TEAD interaction): 1.31 µM | melting point: 180 to 200 °C
SMILES: CN(/N=C/c1ccc2c(c1)COB2O)c1ncnc2c1[nH]c(=O)n2C [Ex98, 6-[[(E)-(1-hydroxy-3H-2,1-benzoxaborol-5-yl)methyleneamino]-methyl-amino]-9-methyl-7H-purin-8-one]

Emax (YAP-TEAD interaction): 91% | IC50 (YAP-TEAD interaction): 2.12 µM | melting point: 288 to 307 °C
SMILES: CN(/N=C/c1ccc2c(c1)COB2O)c1ncnc2c1CC(=O)N2C [Ex99, 4-[[(E)-(1-hydroxy-3H-2,1-benzoxaborol-5-yl)methyleneamino]-methyl-amino]-7-methyl-5H-pyrrolo[2,3-d]pyrimidin-6-one]

Emax (YAP-TEAD interaction): 81% | IC50 (YAP-TEAD interaction): 2.41 µM | melting point: 259 to 270 °C
SMILES: CN(/N=C/c1ccc2c(c1)COB2O)c1ncnc2c1[nH]c(=O)n2C12CC(C1)C2 [Ex110, 9-(3-bicyclo[1.1.1]pentanyl)-6-[[(E)-(1-hydroxy-3H-2,1-benzoxaborol-5-yl)methyleneamino]-methyl-amino]-7H-purin-8-one]

Emax (YAP-TEAD interaction): 86% | IC50 (YAP-TEAD interaction): 0.27 µM
SMILES: Cc1csc2c(N3N=C(c4ccc5c(c4)COB5O)CCC3C)ncnc12 (stereo not drawn) [Ex118, 4-[6-(1-hydroxy-3H-2,1-benzoxaborol-5-yi)-3-methyl-4,5-dihydro-3H-pyridazin-2-yl]-7-methyl-thieno[3,2-d]pyrimidine]
NCI-H2052 mesothelioma cell proliferation [1]: inhibited | effect in the Met5A cell line (Met5A cell line): without showing any effect

Emax (YAP-TEAD interaction): 86% | IC50 (YAP-TEAD interaction): 7.31 µM
SMILES: COc1cc(/C=N/N(CC(C)C)C2=NS(=O)(=O)c3ccccc32)ccc1B(O)O [Ex 1, [4-[(E)-[(1,1-dioxo-1,2-benzothiazol-3-yl)-isobutyl-hydrazono]methyl]-2-methoxy-phenyl]boronic acid]
NCI-H2052 mesothelioma cell proliferation [1]: inhibited | effect in the Met5A cell line (Met5A cell line): without showing any effect

Emax (YAP-TEAD interaction): 76% | IC50 (YAP-TEAD interaction): 5.19 µM | melting point: 227 °C
SMILES: COCCN(/N=C/c1ccc2c(c1)COB2O)C1=NS(=O)(=O)c2ccccc21 [Ex 24, N-[(E)-(1-hydroxy-3H-2,1-benzoxaborol-5-yl)methyleneamino]-N-(2-methoxyethyl)-1,1-dioxo-1,2-benzothiazol-3-amine]

Emax (YAP-TEAD interaction): 83% | IC50 (YAP-TEAD interaction): 6.46 µM | melting point: 218 °C
SMILES: CCN(/N=C/c1ccc2c(c1)COB2O)C1=NS(=O)(=O)c2ccccc21 [Ex 27, N-ethyl-N-[(E)-(1-hydroxy-3H-2,1-benzoxaborol-5-yl)methyleneamino]-1,1-dioxo-1,2-benzothiazol-3-amine]

Emax (YAP-TEAD interaction): 90% | IC50 (YAP-TEAD interaction): 4.13 µM | melting point: 182 °C
SMILES: Cc1ccc2c(c1)S(=O)(=O)N=C2N(CC(C)C)/N=C/c1ccc2c(c1)COB2O [Ex 31, N-[(E)-(1-hydroxy-3H-2,1-benzoxaborol-5-yl)methyleneamino]-N-isobutyl-6-methyl-1,1-dioxo-1,2-benzothiazol-3-amine]

Emax (YAP-TEAD interaction): 81% | IC50 (YAP-TEAD interaction): 1.2 µM | melting point: 245 °C
SMILES: CCN(/N=C/c1ccc2c(c1)COB2O)c1ncnc2[nH]ccc12 [Ex 39, N-ethyl-N-[(E)-(1-hydroxy-3H-2,1-benzoxaborol-5-yl)methyleneamino]-7H-pyrrolo[2,3-d]pyrimidin-4-amine]

Emax (YAP-TEAD interaction): 78% | IC50 (YAP-TEAD interaction): 0.42 µM | melting point: 225 °C
SMILES: CCN(/N=C/c1ccc2c(c1)COB2O)c1ncnc2occc12 [Ex 43, N-ethyl-N-[(E)-(1-hydroxy-3H-2,1-benzoxaborol-5-yl)methyleneamino]furo[2,3-d]pyrimidin-4-amine]

Emax (YAP-TEAD interaction): 81% | IC50 (YAP-TEAD interaction): 3.24 µM
SMILES: COc1cc(C2=NN(C3=NS(=O)(=O)c4ccccc43)CC(C)O2)ccc1B(O)O (stereo not drawn) [Ex 58, [4-[4-(1,1-dioxo-1,2-benzothiazol-3-yl)-6-methyl-5,6-dihydro-1,3,4-oxadiazin-2-yl]-2-methoxy-phenyl]boronic acid]

Emax (YAP-TEAD interaction): 71%
SMILES: COc1cc(/C=N/N(C)c2cc(C)cnn2)ccc1B(O)O [Ex 59, [2-methoxy-4-[(E)-[methyl-(5-methylpyridazin-3-yl)hydrazono]methyl]-phenyl] boronic acid]

Emax (YAP-TEAD interaction): 79% | IC50 (YAP-TEAD interaction): 5 µM
SMILES: COc1cnnc(N(C)/N=C/c2ccc3c(c2)COB3O)c1 [Ex 60, N-[(E)-(1-hydroxy-3H-2,1-benzoxaborol-5-yl)methyleneamino]-5-methoxy-N-methyl-pyridazin-3-amine]

Emax (YAP-TEAD interaction): 87% | IC50 (YAP-TEAD interaction): 6.63 µM
SMILES: COc1cc(/C=N/N(CC(C)C)C2=NS(=O)(=O)c3ccccc32)ccc1B1OC(=O)CN(C)CC(=O)O1 [Ex 61, 2-[4-[(E)-[(1,1-dioxo-1,2-benzothiazol-3-yl)-isobutyl-hydrazono]methyl]-2-methoxy-phenyl]-6-methyl-1,3,6,2-dioxazaborocane-4,8-dione]

The next lines start with the molecule.

SMILES: COc1cc(/C=N/N(C)c2ncnc3c(C)csc23)ccc1B(O)O [Ex71, [2-methoxy-4-[(E)-[methyl-(7-methylthieno[3,2-d]pyrimidin-4-yl) hydrazono]methyl]phenyl]boronic acid]
Emax (YAP-TEAD interaction): 68% | IC50 (YAP-TEAD interaction): 1.14 µM | melting point: 237 to 267 °C

SMILES: CN(/N=C/c1ccc2c(c1)COB2O)c1ncnc2c1cnn2C [Ex76, N-[(E)-(1-hydroxy-3H-2,1-benzoxaborol-5-yl)methyleneamino]-N,1-dimethyl-pyrazolo[3,4-d]pyrimidin-4-amine]
Emax (YAP-TEAD interaction): 86% | IC50 (YAP-TEAD interaction): 0.96 µM | melting point: 250 to 260 °C

SMILES: Cc1csc2c(N(C)/N=C/c3ccc4c(c3)COB4O)ncnc12 [Ex77, N-[(E)-(1-hydroxy-3H-2,1-benzoxaborol-5-yl)methyleneamino]-N,7-dimethyl-thieno[3,2-d]pyrimidin-4-amine]
Emax (YAP-TEAD interaction): 82% | IC50 (YAP-TEAD interaction): 0.32 µM | melting point: 231 °C

SMILES: CCN(/N=C/c1ccc2c(c1)COB2O)c1ncnc2nc(N(C)C)sc12 [Ex79, N7-ethyl-N7-[(E)-(1-hydroxy-3H-2,1-benzoxaborol-5-yl)methyleneamino]-N2,N2-dimethyl-thiazolo[4,5-d]pyrimidine-2,7-diamine]
Emax (YAP-TEAD interaction): 90% | IC50 (YAP-TEAD interaction): 1.01 µM | melting point: 247 to 253 °C

SMILES: CCN(/N=C/c1ccc2c(c1)COB2O)c1ncnc2c(C)n[nH]c12 [Ex80, N-ethyl-N-[(E)-(1-hydroxy-3H-2,1-benzoxaborol-5-yl)methyleneamino]-3-methyl-1H-pyrazolo[4,3-d]pyrimidin-7-amine]
Emax (YAP-TEAD interaction): 69% | IC50 (YAP-TEAD interaction): 1.96 µM | melting point: 265 to 276 °C

SMILES: CCN(/N=C/c1ccc2c(c1)COB2O)c1ncnc2nc(N3CCOCC3)sc12 [Ex82, N-ethyl-N-[(E)-(1-hydroxy-3H-2,1-benzoxaborol-5-yl)methyleneamino]-2-morpholino-thiazolo[4,5-d]pyrimidin-7-amine]
Emax (YAP-TEAD interaction): 89% | IC50 (YAP-TEAD interaction): 2.37 µM | melting point: 183 to 189 °C

SMILES: CCN(/N=C/c1ccc2c(c1)COB2O)c1ncnc2nc(SC)sc12.Cl [Ex83, N-ethyl-N-[(E)-(1-hydroxy-3H-2,1-benzoxaborol-5-yl)methyleneamino]-2-methylsulfanyl-thiazolo[4,5-d]pyrimidin-7-amine hydrochloride]
Emax (YAP-TEAD interaction): 94% | IC50 (YAP-TEAD interaction): 0.23 µM | melting point: 248 to 264 °C

SMILES: CSc1nc2ncnc(N(CC(C)C)/N=C/c3ccc4c(c3)COB4O)c2s1 [Ex92, N-[(E)-(1-hydroxy-3H-2,1-benzoxaborol-5-yl)methyleneamino]-N-isobutyl-2-methylsulfanyl-thiazolo[4,5-d]pyrimidin-7-amine]
Emax (YAP-TEAD interaction): 91% | IC50 (YAP-TEAD interaction): 0.17 µM | melting point: 214 to 246 °C

SMILES: COCCN(/N=C/c1ccc2c(c1)COB2O)c1ncnc2c(C)csc12 [Ex94, N-[(E)-(1-hydroxy-3H-2,1-benzoxaborol-5-yl)methyleneamino]-N-(2-methoxyethyl)-7-methyl-thieno[3,2-d]pyrimidin-4-amine]
Emax (YAP-TEAD interaction): 80% | IC50 (YAP-TEAD interaction): 0.46 µM | melting point: 240 to 253 °C

SMILES: COCCN(/N=C/c1ccc2c(c1)COB2O)c1ncnc2nc(SC)sc12.Cl [Ex95, N-[(E)-(1-hydroxy-3H-2,1-benzoxaborol-5-yl)methyleneamino]-N-(2-methoxyethyl)-2-methylsulfanyl-thiazolo[4,5-d]pyrimidin-7-amine, hydrochloride]
Emax (YAP-TEAD interaction): 85% | IC50 (YAP-TEAD interaction): 0.13 µM | melting point: 252 to 264 °C
